# From ChEMBL document CHEMBL1201861, “Genomics of Drug Sensitity in Cancer screening data, Wellcome Trust Sanger Institute”
# Experiments:
# [1] = tested on: CP50-MEL-B; test: cells; assay type: functional, cell-based, Homo sapiens; conditions: Homo sapiens, CP50-MEL-B;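 note: growth inhibition of the human cell line, measured with a cell viability read-out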
# Description: SANGER: Inhibition of human CP50-MEL-B cell growth in a cell viability assay.
# [2] = tested on: HCC1395; test: cells; assay type: functional, cell-based, Homo sapiens; conditions: Homo sapiens, HCC1395;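 note: growth inhibition of HCC1395 cells, read out by a cell viability assay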
# Description: SANGER: Inhibition of human HCC1395 cell growth in a cell viability assay.
# [3] = tested on: SKG-IIIa; test: cells; assay type: functional, cell-based, Homo sapiens; conditions: Homo sapiens, SKG-IIIa;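 note: cell growth inhibition, read out with a cell viability assay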
# Description: SANGER: Inhibition of human SKG-IIIa cell growth in a cell viability assay.
# [4] = tested on: H-EMC-SS; test: cells; assay type: functional, cell-based, Homo sapiens; conditions: Homo sapiens, H-EMC-SS
# Description: SANGER: Inhibition of human H-EMC-SS cell growth in a cell viability assay.
# [5] = tested on: T98G; test: cells; assay type: functional, cell-based, Homo sapiens; conditions: Homo sapiens, T98G;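 note: growth inhibition of T98G cells, read out by a cell viability assay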
# Description: SANGER: Inhibition of human T98G cell growth in a cell viability assay.
# [6] = tested on: 5637; test: cells; assay type: functional, cell-based, Homo sapiens; conditions: Homo sapiens
# Description: SANGER: Inhibition of human 5637 cell growth in a cell viability assay.
# [7] = tested on: NCI-H1703; test: cells; assay type: functional, cell-based, Homo sapiens; conditions: Homo sapiens, NCI-H1703;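 note: growth inhibition of NCI-H1703 cells, read out via a cell viability assay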
# Description: SANGER: Inhibition of human NCI-H1703 cell growth in a cell viability assay.
# [8] = tested on: ZR-75-30; test: cells; assay type: functional, cell-based, Homo sapiens; conditions: Homo sapiens, ZR-75-30;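 note: growth inhibition of ZR-75-30 cells, measured with a cell viability readout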
# Description: SANGER: Inhibition of human ZR-75-30 cell growth in a cell viability assay.
# [9] = tested on: KYSE-410; test: cells; assay type: functional, cell-based, Homo sapiens; conditions: Homo sapiens, KYSE-410;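 note: growth inhibition of KYSE-410 cells, measured through a cell viability readout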
# Description: SANGER: Inhibition of human KYSE-410 cell growth in a cell viability assay.
# [10] = tested on: SCC-25; test: cells; assay type: functional, cell-based, Homo sapiens; conditions: Homo sapiens, SCC-25;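 note: growth inhibition of SCC-25 cells, measured with a cell viability assay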
# Description: SANGER: Inhibition of human SCC-25 cell growth in a cell viability assay.
# [11] = tested on: NCI-H727; test: cells; assay type: functional, cell-based, Homo sapiens; conditions: Homo sapiens, NCI-H727;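 note: growth inhibition of human NCI-H727 cells, read out with a cell viability assay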
# Description: SANGER: Inhibition of human NCI-H727 cell growth in a cell viability assay.
# [12] = tested on: U-251; test: cells; assay type: functional, cell-based, Homo sapiens; conditions: Homo sapiens, U-251;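 note: growth inhibition of human U-251 cells, read out through a cell viability assay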
# Description: SANGER: Inhibition of human U251 cell growth in a cell viability assay.
# [13] = tested on: COLO-678; test: cells; assay type: functional, cell-based, Homo sapiens; conditions: Homo sapiens, COLO-678
# Description: SANGER: Inhibition of human COLO-678 cell growth in a cell viability assay.
# [14] = tested on: U2OS; test: cells; assay type: functional, cell-based, Homo sapiens, U-2-OS; conditions: Homo sapiens, U2OS;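 note: growth inhibition of human U-2-OS cells, determined with a cell viability assay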
# Description: SANGER: Inhibition of human U-2-OS cell growth in a cell viability assay.
# [15] = tested on: MDA-MB-361; test: cells; assay type: functional, cell-based, Homo sapiens; conditions: Homo sapiens, MDA-MB-361
# [16] = tested on: SW 1116; test: cells; assay type: functional, cell-based, Homo sapiens; conditions: Homo sapiens, SW 1116;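 note: growth inhibition of SW1116 cells, read out with a cell viability assay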
# Description: SANGER: Inhibition of human SW1116 cell growth in a cell viability assay.
# [17] = tested on: MDA-MB-453; test: cells; assay type: functional, cell-based, Homo sapiens; conditions: Homo sapiens, MDA-MB-453
# Description: SANGER: Inhibition of human MDA-MB-453 cell growth in a cell viability assay.
# [18] = tested on: M14; test: cells; assay type: functional, cell-based, Homo sapiens; conditions: Homo sapiens, M14;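 note: growth inhibition of M14 cells, read out with a cell viability assay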
# Description: SANGER: Inhibition of human M14 cell growth in a cell viability assay.
# [19] = tested on: HCC70; test: cells; assay type: functional, cell-based, Homo sapiens; conditions: Homo sapiens, HCC70;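 note: cell viability assay measuring how strongly the compound suppresses proliferation of HCC70 cells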
# Description: SANGER: Inhibition of human HCC70 cell growth in a cell viability assay.
# [20] = tested on: MEL-JUSO; test: cells; assay type: functional, cell-based, Homo sapiens; conditions: Homo sapiens, MEL-JUSO;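 note: growth inhibition of human MEL-JUSO cells, read out with a cell viability assay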
# Description: SANGER: Inhibition of human MEL-JUSO cell growth in a cell viability assay.
# [21] = tested on: UMC-11; test: cells; assay type: functional, cell-based, Homo sapiens; conditions: Homo sapiens, UMC-11;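 note: growth inhibition of UMC-11 cells, read out with a cell viability assay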
# Description: SANGER: Inhibition of human UMC-11 cell growth in a cell viability assay.
# [22] = tested on: MDA-MB-175-VII; test: cells; assay type: functional, cell-based, Homo sapiens; conditions: Homo sapiens, MDA-MB-175-VII
# [23] = tested on: PA-1; test: cells; assay type: functional, cell-based, Homo sapiens; conditions: Homo sapiens, PA-1;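 note: IC50 for suppression of PA-1 cell proliferation, determined with a cell viability read-out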
# Description: SANGER: Inhibition of human PA-1 cell growth in a cell viability assay.
# [24] = tested on: NY; test: cells; assay type: functional, cell-based, Homo sapiens; conditions: Homo sapiens, NY
# Description: SANGER: Inhibition of human NY cell growth in a cell viability assay.
# [25] = tested on: HSC-4; test: cells; assay type: functional, cell-based, Homo sapiens; conditions: Homo sapiens, HSC-4;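 note: growth inhibition of human HSC-4 cells, read out with a cell viability assay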
# Description: SANGER: Inhibition of human HSC-4 cell growth in a cell viability assay.
# [26] = tested on: NCI-H1437; test: cells; assay type: functional, cell-based, Homo sapiens; conditions: Homo sapiens, NCI-H1437;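 note: growth inhibition of human NCI-H1437 cells, read out by a cell viability assay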
# Description: SANGER: Inhibition of human NCI-H1437 cell growth in a cell viability assay.
# [27] = tested on: HSC-3; test: cells; assay type: functional, cell-based, Homo sapiens; conditions: Homo sapiens, HSC-3
# Description: SANGER: Inhibition of human HSC-3 cell growth in a cell viability assay.
# [28] = tested on: D-423MG; test: cells; assay type: functional, cell-based, Homo sapiens; conditions: Homo sapiens, D-423MG
# Description: SANGER: Inhibition of human D-423MG cell growth in a cell viability assay.
# [29] = tested on: YH-13; test: cells; assay type: functional, cell-based, Homo sapiens; conditions: Homo sapiens, YH-13;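 note: cell viability readout of growth suppression in the human YH-13 cell line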
# Description: SANGER: Inhibition of human YH-13 cell growth in a cell viability assay.
# [30] = tested on: CAL-120; test: cells; assay type: functional, cell-based, Homo sapiens; conditions: Homo sapiens, CAL-120;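 note: cell growth inhibition, read out as cell viability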
# Description: SANGER: Inhibition of human CAL-120 cell growth in a cell viability assay.
# [31] = tested on: T-24; test: cells; assay type: functional, cell-based, Homo sapiens; conditions: Homo sapiens, T-24;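 note: growth inhibition of T-24 cells, read out with a cell viability assay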
# Description: SANGER: Inhibition of human T-24 cell growth in a cell viability assay.
# [32] = tested on: MDA-MB-157; test: cells; assay type: functional, cell-based, Homo sapiens; conditions: Homo sapiens, MDA-MB-157
# Description: SANGER: Inhibition of human MDA-MB-157 cell growth in a cell viability assay.
# [33] = tested on: EW-22; test: cells; assay type: functional, cell-based, Homo sapiens; conditions: Homo sapiens, EW-22;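 note: growth inhibition of the EW-22 cell line, measured with a cell viability readout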
# Description: SANGER: Inhibition of human EW-22 cell growth in a cell viability assay.
# [34] = tested on: AU565; test: cells; assay type: functional, cell-based, Homo sapiens; conditions: Homo sapiens, AU565;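 note: cell viability assay measuring growth inhibition of human AU565 cells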
# Description: SANGER: Inhibition of human AU565 cell growth in a cell viability assay.
# [35] = tested on: KYSE-150 cell line; test: cells; assay type: functional, cell-based, Homo sapiens; conditions: Homo sapiens, KYSE-150;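 note: growth inhibition of human KYSE-150 cells, read out with a cell viability assay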
# Description: SANGER: Inhibition of human KYSE-150 cell growth in a cell viability assay.
# [36] = tested on: NCI-H2170; test: cells; assay type: functional, cell-based, Homo sapiens; conditions: Homo sapiens, NCI-H2170;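 note: cell viability assay measuring growth inhibition of human NCI-H2170 cancer cells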
# Description: SANGER: Inhibition of human NCI-H2170 cell growth in a cell viability assay.
# [37] = tested on: SW1990; test: cells; assay type: functional, cell-based, Homo sapiens; conditions: Homo sapiens, SW1990
# Description: SANGER: Inhibition of human SW1990 cell growth in a cell viability assay.
# [38] = tested on: SIMA; test: cells; assay type: functional, cell-based, Homo sapiens; conditions: Homo sapiens, SIMA;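 note: growth inhibition of SIMA cells, measured with a cell viability readout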
# Description: SANGER: Inhibition of human SIMA cell growth in a cell viability assay.
# [39] = tested on: NCI-H64; test: cells; assay type: functional, cell-based, Homo sapiens; conditions: Homo sapiens, NCI-H64;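 note: growth inhibition of NCI-H64 cells, read out with a cell viability assay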
# Description: SANGER: Inhibition of human NCI-H64 cell growth in a cell viability assay.
# [40] = tested on: EVSA-T; test: cells; assay type: functional, cell-based, Homo sapiens; conditions: Homo sapiens, EVSA-T;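 note: growth inhibition of EVSA-T cells, read out with a cell viability assay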
# Description: SANGER: Inhibition of human EVSA-T cell growth in a cell viability assay.
# [41] = tested on: CESS; test: SANGER: Inhibition of human CESS cell growth in a cell viability assay.; assay type: functional, cell-based; conditions: Homo sapiens, CESS
# [42] = tested on: SU-DHL-1; test: SANGER: Inhibition of human SU-DHL-1 cell growth in a cell viability assay.; assay type: functional, cell-based; conditions: Homo sapiens, SU-DHL-1
# [43] = tested on: NCI-H1522; test: cells; assay type: functional, cell-based, Homo sapiens; conditions: Homo sapiens, NCI-H1522;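 note: growth inhibition of NCI-H1522 cells, read out with a cell viability assay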
# Description: SANGER: Inhibition of human NCI-H1522 cell growth in a cell viability assay.
# [44] = tested on: SR; test: cells; assay type: functional, cell-based, Homo sapiens; conditions: Homo sapiens, SR
# Description: SANGER: Inhibition of human SR cell growth in a cell viability assay.
# [45] = tested on: NCI-H322M; test: cells; assay type: functional, cell-based, Homo sapiens; conditions: Homo sapiens, NCI-H322M;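 note: cell viability assay measuring inhibition of growth of human NCI-H322M cells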
# Description: SANGER: Inhibition of human NCI-H322M cell growth in a cell viability assay.
# [46] = tested on: TE-441-T; test: cells; assay type: functional, cell-based, Homo sapiens; conditions: Homo sapiens, TE-441-T
# Description: SANGER: Inhibition of human TE-441-T cell growth in a cell viability assay.
# [47] = tested on: NCCIT; test: SANGER: Inhibition of human NCCIT cell growth in a cell viability assay.; assay type: functional, cell-based; conditions: Homo sapiens, NCCIT
structure (smiles),measurement,setting,value
CN(C)C(=N)NC(=N)N [METFORMIN],IC50,[1],> 20000 µM
same,IC50,[2],> 20000 µM
same,IC50,[3],> 20000 µM
same,IC50,[4],> 20000 µM
same,IC50,[5],> 20000 µM
same,IC50,[6],5300 µM
same,IC50,[7],17300 µM
same,IC50,[8],14900 µM
same,IC50,[9],> 20000 µM
same,IC50,[10],12200 µM
same,IC50,[11],> 20000 µM
same,IC50,[12],9900 µM
same,IC50,[13],> 20000 µM
same,IC50,[14],> 20000 µM
same,IC50,[15],> 20000 µM
same,IC50,[16],> 20000 µM
same,IC50,[17],12900 µM
same,IC50,[18],> 20000 µM
same,IC50,[19],> 20000 µM
same,IC50,[20],16000 µM
same,IC50,[21],> 20000 µM
same,IC50,[22],> 20000 µM
same,IC50,[23],14200 µM
same,IC50,[24],14100 µM
same,IC50,[25],5480 µM
same,IC50,[26],> 20000 µM
same,IC50,[27],> 20000 µM
same,IC50,[28],3260 µM
same,IC50,[29],> 20000 µM
CC1(C)CNc2cc(NC(=O)c3cccnc3NCc3ccncc3)ccc21 [MOTESANIB],IC50,[1],> 2 µM
same,IC50,[2],> 2 µM
same,IC50,[30],> 2 µM
same,IC50,[3],> 2 µM
same,IC50,[4],> 2 µM
same,IC50,[31],> 2 µM
same,IC50,[32],> 2 µM
same,IC50,[5],> 2 µM
same,IC50,[6],> 2 µM
same,IC50,[8],> 2 µM
same,IC50,[33],> 2 µM
same,IC50,[9],> 2 µM
same,IC50,[10],> 2 µM
same,IC50,[11],> 2 µM
same,IC50,[34],> 2 µM
same,IC50,[12],> 2 µM
same,IC50,[13],> 2 µM
same,IC50,[14],> 2 µM
same,IC50,[15],> 2 µM
same,IC50,[16],> 2 µM
same,IC50,[17],> 2 µM
same,IC50,[18],> 2 µM
same,IC50,[35],> 2 µM
same,IC50,[19],> 2 µM
same,IC50,[21],> 2 µM
same,IC50,[22],> 2 µM
same,IC50,[23],> 2 µM
same,IC50,[24],> 2 µM
same,IC50,[26],> 2 µM
same,IC50,[36],> 2 µM
same,IC50,[27],> 2 µM
same,IC50,[28],> 2 µM
same,IC50,[37],> 2 µM
same,IC50,[29],> 2 µM
Cn1cnc2c(F)c(Nc3ccc(Br)cc3Cl)c(C(=O)NOCCO)cc21 [SELUMETINIB],IC50,[1],0.128 µM
same,IC50,[2],> 4 µM
same,IC50,[30],> 4 µM
same,IC50,[3],> 4 µM
same,IC50,[4],0.291 µM
same,IC50,[31],> 4 µM
same,IC50,[32],> 4 µM
same,IC50,[5],> 4 µM
same,IC50,[6],> 4 µM
same,IC50,[8],> 4 µM
same,IC50,[33],> 4 µM
same,IC50,[9],> 4 µM
same,IC50,[10],> 4 µM
same,IC50,[11],> 4 µM
same,IC50,[34],> 4 µM
same,IC50,[12],> 4 µM
same,IC50,[13],1.62 µM
same,IC50,[14],> 4 µM
same,IC50,[15],> 4 µM
same,IC50,[16],> 4 µM
same,IC50,[17],> 4 µM
same,IC50,[18],0.0369 µM
same,IC50,[35],> 4 µM
same,IC50,[19],> 4 µM
same,IC50,[21],> 4 µM
same,IC50,[22],> 4 µM
same,IC50,[23],> 4 µM
same,IC50,[24],> 4 µM
same,IC50,[26],0.353 µM
same,IC50,[36],> 4 µM
same,IC50,[27],1.19 µM
same,IC50,[28],> 4 µM
same,IC50,[37],> 4 µM
same,IC50,[29],> 4 µM
Nc1ccn([C@@H]2O[C@H](CO)[C@@H](O)C2(F)F)c(=O)n1 [GEMCITABINE],IC50,[38],0.161 µM
same,IC50,[1],> 1.02 µM
same,IC50,[2],> 1.02 µM
same,IC50,[39],0.151 µM
same,IC50,[30],0.576 µM
same,IC50,[3],0.81 µM
same,IC50,[31],> 1.02 µM
same,IC50,[32],> 1.02 µM
same,IC50,[5],0.539 µM
same,IC50,[6],> 1.02 µM
same,IC50,[7],0.0318 µM
same,IC50,[9],0.0559 µM
same,IC50,[10],0.289 µM
same,IC50,[11],0.00251 µM
same,IC50,[40],> 1.02 µM
same,IC50,[34],0.0218 µM
same,IC50,[12],0.0223 µM
same,IC50,[13],> 1.02 µM
same,IC50,[14],> 1.02 µM
same,IC50,[15],0.461 µM
same,IC50,[41],0.0232 µM
same,IC50,[17],> 1.02 µM
same,IC50,[18],0.515 µM
same,IC50,[35],0.00847 µM
same,IC50,[42],0.0627 µM
same,IC50,[19],> 1.02 µM
same,IC50,[43],> 1.02 µM
same,IC50,[44],0.00212 µM
same,IC50,[20],< 0.004 µM
same,IC50,[21],> 1.02 µM
same,IC50,[22],> 1.02 µM
same,IC50,[23],0.00899 µM
same,IC50,[24],0.0302 µM
same,IC50,[25],< 0.004 µM
same,IC50,[45],> 1.02 µM
same,IC50,[26],0.00942 µM
same,IC50,[36],0.012 µM
same,IC50,[27],0.00191 µM
same,IC50,[37],0.113 µM
same,IC50,[46],> 1.02 µM
same,IC50,[47],0.176 µM
